From patent US11046699B2, “Pyrazolo-pyrimidin-amino-cycloalkyl compounds and their therapeutic uses” (RAPT THERAPEUTICS, INC., priority 2018, dated 2021) come the findings set out here.

Structures are written as SMILES. Where a name gives a salt, the structure may show the parent alone.

In the assay the target is GCN2 (Homo sapiens, UniProt Q9P2K8). In words: GCN2 enzymatic endpoint assay: phosphorylation of GFP-eIF2α measured by TR-FRET (Lanthascreen). The assay is classed as biochemical. The settings on record: GCN2 biochemical IC50; 4 nM GCN2, 2 μM ATP, 80 nM GFP-eIF2α, 90 min RT; read-out: GCN2 activity. The procedure, abridged:
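Read-out is the TR-FRET ratio of acceptor signal at 520 nm to terbium donor at 495 nm, rising with antibody binding to phosphorylated GFP-eIF2α. Endpoint format: 2 μM ATP, 80 nM substrate, 90 minutes at room temperature, EDTA stop.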
A general note: In TR-FRET formats the signal depends on donor and acceptor labels being close together.

GCN2, sequence (Q9P2K8 whole entry): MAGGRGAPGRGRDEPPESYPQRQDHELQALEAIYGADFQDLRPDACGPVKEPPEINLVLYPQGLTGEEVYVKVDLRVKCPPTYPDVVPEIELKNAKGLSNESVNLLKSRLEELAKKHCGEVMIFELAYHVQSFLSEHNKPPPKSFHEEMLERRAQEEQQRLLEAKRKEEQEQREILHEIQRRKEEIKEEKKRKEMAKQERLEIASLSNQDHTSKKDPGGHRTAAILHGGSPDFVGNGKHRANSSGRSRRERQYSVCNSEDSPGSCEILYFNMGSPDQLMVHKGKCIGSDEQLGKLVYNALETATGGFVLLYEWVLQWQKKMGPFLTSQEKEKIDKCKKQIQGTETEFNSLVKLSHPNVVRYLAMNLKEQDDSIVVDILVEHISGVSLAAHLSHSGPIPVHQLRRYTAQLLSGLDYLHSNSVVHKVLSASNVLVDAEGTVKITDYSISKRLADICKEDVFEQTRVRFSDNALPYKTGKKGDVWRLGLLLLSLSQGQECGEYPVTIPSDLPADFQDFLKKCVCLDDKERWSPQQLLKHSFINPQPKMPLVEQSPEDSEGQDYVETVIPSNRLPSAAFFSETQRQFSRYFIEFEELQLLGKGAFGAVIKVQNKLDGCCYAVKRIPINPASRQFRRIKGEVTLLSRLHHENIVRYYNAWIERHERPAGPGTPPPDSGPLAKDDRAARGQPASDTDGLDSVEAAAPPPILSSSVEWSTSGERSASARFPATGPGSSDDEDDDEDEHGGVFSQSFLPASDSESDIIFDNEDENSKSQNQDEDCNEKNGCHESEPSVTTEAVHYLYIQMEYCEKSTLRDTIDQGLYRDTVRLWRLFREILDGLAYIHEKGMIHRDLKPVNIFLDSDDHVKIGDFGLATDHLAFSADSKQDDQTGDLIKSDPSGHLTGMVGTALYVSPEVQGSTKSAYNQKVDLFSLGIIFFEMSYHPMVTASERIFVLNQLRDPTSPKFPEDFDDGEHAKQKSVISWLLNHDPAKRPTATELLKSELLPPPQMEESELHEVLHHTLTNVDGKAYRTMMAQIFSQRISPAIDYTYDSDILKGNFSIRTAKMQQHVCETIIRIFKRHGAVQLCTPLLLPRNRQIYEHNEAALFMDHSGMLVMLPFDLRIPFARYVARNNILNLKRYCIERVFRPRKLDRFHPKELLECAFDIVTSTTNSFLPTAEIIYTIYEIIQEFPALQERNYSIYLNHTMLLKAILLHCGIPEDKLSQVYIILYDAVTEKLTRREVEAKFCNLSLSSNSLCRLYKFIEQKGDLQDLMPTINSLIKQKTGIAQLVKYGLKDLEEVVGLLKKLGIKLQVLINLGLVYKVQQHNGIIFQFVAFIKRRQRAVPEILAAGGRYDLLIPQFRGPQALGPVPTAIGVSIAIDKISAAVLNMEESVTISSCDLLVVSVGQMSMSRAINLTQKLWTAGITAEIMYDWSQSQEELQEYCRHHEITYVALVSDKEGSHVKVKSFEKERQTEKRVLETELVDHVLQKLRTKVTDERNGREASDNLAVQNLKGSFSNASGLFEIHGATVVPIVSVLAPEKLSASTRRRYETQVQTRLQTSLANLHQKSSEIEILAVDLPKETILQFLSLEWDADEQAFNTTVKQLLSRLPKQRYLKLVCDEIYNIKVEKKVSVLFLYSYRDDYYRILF

In the case of `CNC(=O)[C@]1(CC(F)F)CC[C@@H](Nc2ncc3c(Br)nn(-c4ccc(-c5nnc(C)s5)c(CCC#N)c4)c3n2)C1` [Example 53, (1R,3R)-3-((3-bromo-1-(3-(2-cyanoethyl)-4-(5-methyl-1,3,4-thiadiazol-2-yl)phenyl)-1H-pyrazolo[3,4-d]pyrimidin-6-yl)amino)-1-(2,2-difluoroethyl)-N-methylcyclopentane-1-carboxamide; 2,2,2-trifluoroacetic acid], the IC50 lay in the range of 25 to 200 nM.

`CNC(=O)[C@]1(C)CC[C@@H](Nc2ncc3c(Br)nn(-c4cccc(NC(=O)c5cnccn5)c4)c3n2)C1` [Example 54, N-(3-(3-bromo-6-(((1R,3R)-3-methyl-3-(methylcarbamoyl)cyclopentyl)amino)-1H-pyrazolo[3,4-d]pyrimidin-1-yl)phenyl)pyrazine-2-carboxamide]: the IC50 is 25 to 200 nM.

As for `Cc1nnc(-c2ccc(-n3nc(Br)c4cnc(N[C@@H]5CC[C@@H](P(C)(C)=O)C5)nc43)cc2)s1` [Example 57, ((1R,3R)-3-((3-bromo-1-(4-(5-methyl-1,3,4-thiadiazol-2-yl)phenyl)-1H-pyrazolo[3,4-d]pyrimidin-6-yl)amino)cyclopentyl)dimethylphosphine oxide], the IC50 fell in the range of 25 to 200 nM.

Consider `CNC(=O)[C@]1(C)CC[C@@H](Nc2ncc3c(Br)nn(-c4ccc(-c5nnc(C)o5)c(CO)c4)c3n2)C1` [Example 58, (1R,3R)-3-((3-bromo-1-(3-(hydroxymethyl)-4-(5-methyl-1,3,4-oxadiazol-2-yl)phenyl)-1H-pyrazolo[3,4-d]pyrimidin-6-yl)amino)-N,1-dimethylcyclopentane-1-carboxamide], for which the IC50 lay within 25 to 200 nM.

For `CNC(=O)[C@]1(C)CC[C@@H](Nc2ncc3c(Br)nn(-c4ccc(N5CCOCC5)c(C#N)c4)c3n2)C1` [Example 59, (1R,3R)-3-((3-bromo-1-(3-cyano-4-morpholinophenyl)-1H-pyrazolo[3,4-d]pyrimidin-6-yl)amino)-N,1-dimethylcyclopentane-1-carboxamide hydrochloride], the IC50 lay within 25 to 200 nM.

Regarding `Cc1nnc(-c2ccc(-n3nc(Br)c4cnc(N[C@@H]5CC[C@@](C)(C(N)=O)C5)nc43)cc2)s1` [Example 60, (1R,3R)-3-((3-bromo-1-(4-(5-methyl-1,3,4-thiadiazol-2-yl)phenyl)-1H-pyrazolo[3,4-d]pyrimidin-6-yl)amino)-1-methylcyclopentane-1-carboxamide], the IC50 was 25 to 200 nM.

For `CNC(=O)[C@]1(C)CC[C@@H](Nc2ncc3c(Br)nn(-c4ccc5c(c4)CN(S(C)(=O)=O)C5)c3n2)C1` [Example 61, (1R,3R)-3-((3-bromo-1-(2-(methylsulfonyl)isoindolin-5-yl)-1H-pyrazolo[3,4-d]pyrimidin-6-yl)amino)-N,1-dimethylcyclopentane-1-carboxamide], the IC50 was in the range of 25 to 200 nM.

For `CNC(=O)[C@]1(C)CC[C@@H](Nc2ncc3c(Br)nn(-c4ccc(-c5ncco5)c(CCN(C)C)c4)c3n2)C1` [Example 62, (1R,3R)-3-((3-bromo-1-(3-(2-(dimethylamino)ethyl)-4-(oxazol-2-yl)phenyl)-1H-pyrazolo[3,4-d]pyrimidin-6-yl)amino)-N,1-dimethylcyclopentane-1-carboxamide; 2,2,2-trifluoroacetic acid], the IC50 is 25 to 200 nM.

With `CNC(=O)[C@]1(C)CC[C@@H](Nc2ncc3c(Br)nn(-c4ccc(-c5nnc(C)s5)c(CCN(C)C)c4)c3n2)C1` [Example 63, (1R,3R)-3-((3-bromo-1-(3-(2-(dimethylamino)ethyl)-4-(5-methyl-1,3,4-thiadiazol-2-yl)phenyl)-1H-pyrazolo[3,4-d]pyrimidin-6-yl)amino)-N,1-dimethylcyclopentane-1-carboxamide; 2,2,2-trifluoroacetic acid], the IC50 lay within 25 to 200 nM.

Take `CNC(=O)[C@]1(C)CC[C@@H](Nc2ncc3c(Br)nn(-c4cc(Cl)cc([C@H](C)N)c4)c3n2)C1` [Example 64, (1R,3R)-3-((1-(3-((S)-1-aminoethyl)-5-chlorophenyl)-3-bromo-1H-pyrazolo[3,4-d]pyrimidin-6-yl)amino)-N,1-dimethylcyclopentane-1-carboxamide]: the IC50 was < 25 nM.

For `CNC(=O)[C@]1(C)CC[C@@H](Nc2ncc3c(Br)nn(-c4ccc(Cl)c([C@H](C)N)c4)c3n2)C1` [Example 65, (1R,3R)-3-((1-(3-((S)-1-aminoethyl)-4-chlorophenyl)-3-bromo-1H-pyrazolo[3,4-d]pyrimidin-6-yl)amino)-N,1-dimethylcyclopentane-1-carboxamide], the IC50 is < 25 nM.

For `CC[C@@H](N)c1cc(-n2nc(Br)c3cnc(N[C@@H]4CC[C@@](C)(C(=O)NC)C4)nc32)cc2nccnc12` [Example 66, (1R,3R)-3-((1-(8-((R)-1-aminopropyl)quinoxalin-6-yl)-3-bromo-1H-pyrazolo[3,4-d]pyrimidin-6-yl)amino)-N,1-dimethylcyclopentane-1-carboxamide], the IC50 was < 25 nM.

For the molecule `Cc1nnc(-c2ccc(-n3nc(Br)c4cnc(N[C@@H]5CC[C@@](C)(O)C5)nc43)cc2C#N)s1` [Example 67, 5-(3-bromo-6-(((1R,3R)-3-hydroxy-3-methylcyclopentyl)amino)-1H-pyrazolo[3,4-d]pyrimidin-1-yl)-2-(5-methyl-1,3,4-thiadiazol-2-yl)benzonitrile], the IC50 is < 25 nM.

Consider `CNS(=O)(=O)[C@@H]1CC[C@@H](Nc2ncc3c(Br)nn(-c4ccc(-c5nnc(C)s5)cc4)c3n2)C1` [Example 68, (1R,3R)-3-((3-bromo-1-(4-(5-methyl-1,3,4-thiadiazol-2-yl)phenyl)-1H-pyrazolo[3,4-d]pyrimidin-6-yl)amino)-N-methylcyclopentane-1-sulfonamide], for which the IC50 was < 25 nM.

As for `CNC(=O)[C@]1(C)CC[C@@H](Nc2ncc3c(Br)nn(-c4ccc(-c5nnc(C)s5)c(C#N)c4)c3n2)C1` [Example 69, (1R,3R)-3-((3-bromo-1-(3-cyano-4-(5-methyl-1,3,4-thiadiazol-2-yl)phenyl)-1H-pyrazolo[3,4-d]pyrimidin-6-yl)amino)-N,1-dimethylcyclopentane-1-carboxamide], the IC50 was < 25 nM.

With `Cn1cnc2ccc(-n3nc(Br)c4cnc(N[C@@H]5CC[C@@](C)(O)C5)nc43)cc2c1=O` [Example 70, 6-(3-bromo-6-(((1R,3R)-3-hydroxy-3-methylcyclopentyl)amino)-1H-pyrazolo[3,4-d]pyrimidin-1-yl)-3-methylquinazolin-4(3H)-one], the IC50 was < 25 nM.

For the molecule `CNC(=O)C[C@H]1C[C@H](Nc2ncc3c(Br)nn(-c4cc(Cl)cc([C@H](C)N)c4)c3n2)C1` [Example 71, 2-((1S,3r)-3-((1-(3-((S)-1-aminoethyl)-5-chlorophenyl)-3-bromo-1H-pyrazolo[3,4-d]pyrimidin-6-yl)amino)cyclobutyl)-N-methylacetamide], the IC50 is 25 to 200 nM.

Regarding `CNC(=O)[C@]1(C)CC[C@@H](Nc2ncc3c(Br)nn(-c4ccc5ncn(C)c(=O)c5c4)c3n2)C1` [Example 72, (1R,3R)-3-((3-bromo-1-(3-methyl-4-oxo-3,4-dihydroquinazolin-6-yl)-1H-pyrazolo[3,4-d]pyrimidin-6-yl)amino)-N,1-dimethylcyclopentane-1-carboxamide], the IC50 lay in the range of 25 to 200 nM.

As to `CNC(=O)[C@]1(C)CC[C@@H](Nc2ncc3c(Br)nn(-c4ccc5nc(N6CCC6)ncc5c4)c3n2)C1` [Example 73, (1R,3R)-3-((1-(2-(azetidin-1-yl)quinazolin-6-yl)-3-bromo-1H-pyrazolo[3,4-d]pyrimidin-6-yl)amino)-N,1-dimethylcyclopentane-1-carboxamide], the IC50 lay in the range of 25 to 200 nM.
